Results: ChEMBL document CHEMBL1201862, “PubChem BioAssay data set” (2004)
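Results reflect a 48-hour exposure of cells in 96-well plates to compound at five concentrations. Abbreviation: GI50, concentration required for 50% inhibition of growth.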 The source made the active and inactive calls. Rule as the data show it: active = GI50 up to about 1.1 µM and inactive = higher.

How the values were obtained:
Assay in all cases: NCI tumour cell line growth inhibition, 48 h
HCT-15 = system: HCT-15
UO-31 = system: UO-31
SF-268 = system: SF-268
HT-29 = system: HT-29
UACC-257 = system: UACC-257
ACHN = system: ACHN
LOX IMVI = system: LOX IMVI
SK-MEL-28 = system: SK-MEL-28
HOP-92 = system: HOP-92
M14 = system: M14
SF-539 = system: SF-539
SK-MEL-2 = system: SK-MEL-2
IGROV-1 = system: IGROV-1
Malme-3M = system: Malme-3M
LXFL 529 = system: LXFL 529
NCI-H23 = system: NCI-H23
KM12 = system: KM12
SN12C = system: SN12C
MDA-MB-435 = system: MDA-MB-435
MDA-N = system: MDA-N

Row | Compound | GI50 (HCT-15) [µM] | GI50 (UO-31) | GI50 (SF-268) | GI50 (HT-29) | GI50 (UACC-257) | GI50 (ACHN) | GI50 (LOX IMVI) | GI50 (SK-MEL-28) | GI50 (HOP-92) | GI50 (M14) | GI50 (SF-539) | GI50 (SK-MEL-2) | GI50 (IGROV-1) | GI50 (Malme-3M) | GI50 (LXFL 529) | GI50 (NCI-H23) | GI50 (KM12) | GI50 (SN12C) | GI50 (MDA-MB-435) | GI50 (MDA-N)
1 | CN(C)NC(=O)/C(=C/c1ccc(Cl)cc1)NC(=O)c1ccccc1 | 32 | 57.1 µM (inactive) | > 100 µM (inactive) | > 100 µM (inactive) | > 100 µM (inactive) | > 100 µM (inactive) | 48.3 µM (inactive) | > 100 µM (inactive) | > 100 µM (inactive) | > 100 µM (inactive) | > 100 µM (inactive) | > 100 µM (inactive) | > 100 µM (inactive) | > 100 µM (inactive) | > 100 µM (inactive) | > 100 µM (inactive) | > 100 µM (inactive) | > 100 µM (inactive) | – | –
2 | Cc1nc(N)nc(N)c1CCCCc1ccc(N)cc1 | 4.09 | 13.2 µM (inactive) | 0.995 µM (active) | 0.729 µM (active) | 5.07 µM (inactive) | 4.12 µM (inactive) | 1.09 µM (active) | 10.1 µM (inactive) | 3.93 µM (inactive) | 2.58 µM (inactive) | 7.98 µM (inactive) | 9.06 µM (inactive) | 3.35 µM (inactive) | 1.96 µM (inactive) | 6.46 µM (inactive) | 4.37 µM (inactive) | 9.35 µM (inactive) | 4.3 µM (inactive) | – | –
3 | Nc1nc(SCc2ccccc2[N+](=O)[O-])c2[nH]cnc2n1 | > 56.5 | > 66.5 µM (inactive) | > 35.7 µM (inactive) | 32.8 µM (inactive) | > 40.1 µM (inactive) | > 57.8 µM (inactive) | > 53.3 µM (inactive) | > 61.1 µM (inactive) | 2.23 µM (inactive) | > 53.3 µM (inactive) | > 100 µM (inactive) | 26.7 µM (inactive) | > 38 µM (inactive) | > 30.6 µM (inactive) | > 100 µM (inactive) | > 58.1 µM (inactive) | > 57.7 µM (inactive) | > 57.1 µM (inactive) | 36 µM (inactive) | 27.9 µM (inactive)
4 | O=C1C(Br)=C(Br)C(=O)c2ccc(=O)ccc21 | 18.7 | 17.6 µM (inactive) | 30.3 µM (inactive) | 30.8 µM (inactive) | 24.7 µM (inactive) | 17.6 µM (inactive) | 20.6 µM (inactive) | 27 µM (inactive) | 18.5 µM (inactive) | 17.9 µM (inactive) | 24.7 µM (inactive) | 48.9 µM (inactive) | > 52.2 µM (inactive) | 19.9 µM (inactive) | 17.7 µM (inactive) | 21.2 µM (inactive) | 46.8 µM (inactive) | 19.1 µM (inactive) | 18.7 µM (inactive) | 22.6 µM (inactive)
5 | COC(=O)C(C(=O)C(=O)Nc1ccc(C)cc1C)c1nc2ccc([N+](=O)[O-])cc2nc1O (centres undefined) | > 100 | 76.2 µM (inactive) | > 100 µM (inactive) | > 100 µM (inactive) | > 100 µM (inactive) | > 100 µM (inactive) | > 100 µM (inactive) | > 100 µM (inactive) | > 100 µM (inactive) | > 100 µM (inactive) | > 100 µM (inactive) | > 100 µM (inactive) | > 100 µM (inactive) | > 100 µM (inactive) | 56.8 µM (inactive) | > 100 µM (inactive) | > 100 µM (inactive) | > 100 µM (inactive) | – | –
6 | O=C(/C=C/c1ccc(OCCSCCCCCCCCCCSCCOc2ccc(/C=C/C(=O)c3ccc(Cl)cc3)cc2)cc1)c1ccc(Cl)cc1 | > 100 | > 100 µM (inactive) | 76 µM (inactive) | > 100 µM (inactive) | > 100 µM (inactive) | > 88.1 µM (inactive) | > 100 µM (inactive) | > 100 µM (inactive) | 47.4 µM (inactive) | > 100 µM (inactive) | 45.6 µM (inactive) | 61.8 µM (inactive) | > 100 µM (inactive) | > 100 µM (inactive) | > 100 µM (inactive) | > 94.6 µM (inactive) | > 100 µM (inactive) | > 100 µM (inactive) | > 100 µM (inactive) | > 100 µM (inactive)
